Data as given in patent US20170121315A1, “HETEROBICYCLICALLY SUBSTITUTED 4-OXOBUTANE ACID DERIVATIVES AND USE THEREOF” (priority 2014, published 2017).
pIC50: −log10 of the molar value.

Assays:
Format in all cases: biochemical
MMP-2 = target: T1, MMP-2 (Homo sapiens, UniProt P08253); test: In vitro MMP-2 inhibition test; conditions: human MMP-2
T1 construct: purchased R&D Systems 902-MP
T1 sequence (P08253 110-660): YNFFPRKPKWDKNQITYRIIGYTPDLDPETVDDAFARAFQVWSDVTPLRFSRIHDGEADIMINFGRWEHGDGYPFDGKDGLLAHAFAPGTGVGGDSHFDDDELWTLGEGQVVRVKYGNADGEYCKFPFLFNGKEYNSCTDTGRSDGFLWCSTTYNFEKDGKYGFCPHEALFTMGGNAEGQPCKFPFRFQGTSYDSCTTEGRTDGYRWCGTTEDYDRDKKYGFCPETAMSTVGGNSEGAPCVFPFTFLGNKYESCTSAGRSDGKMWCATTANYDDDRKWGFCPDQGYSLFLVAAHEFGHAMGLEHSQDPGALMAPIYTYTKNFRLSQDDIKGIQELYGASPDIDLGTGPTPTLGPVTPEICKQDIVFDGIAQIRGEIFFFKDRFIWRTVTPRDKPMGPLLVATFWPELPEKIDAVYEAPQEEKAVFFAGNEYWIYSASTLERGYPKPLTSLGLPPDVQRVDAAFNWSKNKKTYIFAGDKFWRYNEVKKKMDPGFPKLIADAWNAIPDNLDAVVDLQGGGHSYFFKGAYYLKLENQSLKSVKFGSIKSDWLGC
Source text: (§1) The MMP-mediated amidolytic cleavage of a suitable peptide substrate leads to an increase in fluorescent light here too. The signal intensity of the fluorescent light is directly proportional to the enzyme activity. The active concentration of a test compound at which half the enzyme is inhibited (50% signal intensity of the fluorescent light) is reported as the IC50 value.
(§2) Recombinant MMP-2 (R&D Systems, 902-MP) is chemically activated in accordance with the manufacturer's instructions using APMA. 1 μl of the test compound to be analysed (as a solution in DMSO, suitable concentrations e.g. 1 nM to 30 μM) is pipetted into 24 μl of activated enzyme (final concentration e.g. 2 nM) in reaction buffer (50 mM Tris/HCl pH 7.5, 10 mM CaCl2, 150 mM NaCl, 0.05% Brij®-35) in a white 384-hole microtiter plate (MTP). The enzymatic reaction is started by adding the intramolecularly quenched Mca-Pro-Leu-Gly-Leu-Dpa(Dnp)-Ala-Arg-NH2 substrate (final concentration e.g. 10 μM; R&D Systems, ES-001), so as to result in a total test volume of 50 μl. The course of the MMP-2 reaction is measured by measuring the fluorescence intensity (excitation 320 nm, emission 410 nm) over a suitable period of time (e.g. over 120 min at a temperature of 32° C.).

MMP-13 = target: T2, MMP-13 (Homo sapiens, UniProt P45452); test: In vitro MMP-13 inhibition test; conditions: human MMP-13
T2 construct: purchased R&D Systems 511-MP
Source text: as §1
as §2, with “Recombinant MMP-13” for “Recombinant MMP-2”, “Systems, 511-MP)” for “Systems, 902-MP)”, “e.g. 0.1” for “e.g. 2”, “the MMP-13” for “the MMP-2”

MMP-1 = target: T3, MMP-1 (Homo sapiens, UniProt P03956); test: In vitro MMP-1 inhibition test; conditions: human MMP-1
T3 construct: purchased R&D Systems 901-MP
T3 sequence (P03956 100-469): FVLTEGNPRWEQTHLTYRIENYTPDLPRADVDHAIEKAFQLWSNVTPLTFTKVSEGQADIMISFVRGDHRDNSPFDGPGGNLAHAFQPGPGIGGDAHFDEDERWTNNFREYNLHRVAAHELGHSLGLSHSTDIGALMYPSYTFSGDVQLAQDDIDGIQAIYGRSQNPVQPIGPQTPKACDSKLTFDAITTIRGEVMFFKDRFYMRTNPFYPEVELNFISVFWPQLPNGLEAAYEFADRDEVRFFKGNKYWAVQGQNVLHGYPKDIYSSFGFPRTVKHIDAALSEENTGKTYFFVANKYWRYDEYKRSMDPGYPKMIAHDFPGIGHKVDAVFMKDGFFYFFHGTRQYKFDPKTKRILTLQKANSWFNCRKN
Source text: as §1
as §2, with “MMP-1” for “MMP-2”, “901-MP)” for “902-MP)”

Q: `O=C(CC(CCn1nnc2ccccc2c1=O)C(=O)O)c1cc2cc(OCCCC(F)(F)F)ccc2o1` (single isomer, unassigned; enantiomer 2) [Example 13, (+)-4-Oxo-2-[2-(4-oxo-1,2,3-benzotriazin-3(4H)-yl)ethyl]-4-[5-(4,4,4-trifluorobutoxy)-1-benzofur-2-yl]butanoic acid (enantiomer 2)] was tested. Which pIC50 (MMP-2) did it give?
A: Its pIC50 is 5.89.

Q: What about the pIC50 (MMP-13) of the same compound?
A: Its pIC50 is 5.34.

Q: What about the pIC50 (MMP-1) of the same compound?
A: The pIC50 was < 4.40.

Q: How did the pIC50 (MMP-2) turn out when `O=C(CC(CCn1nnc2ccc(C(F)(F)F)cc2c1=O)C(=O)O)c1noc2cc(OCC3CCOCC3)ccc12` (racemic) [Example 155, (+/−)-4-Oxo-2-{2-[4-oxo-6-(trifluoromethyl)-1,2,3-benzotriazin-3(4H)-yl]ethyl}-4-[6-(tetrahydro-2H-pyran-4-ylmethoxy)-1,2-benzoxazol-3-yl]butanoic acid] was run?
A: The pIC50 was 5.35.

Q: What about the pIC50 (MMP-13) of the same compound?
A: Its pIC50 is 5.57.

Q: What about the pIC50 (MMP-1) of the same compound?
A: Its pIC50 is < 4.40.

Q: With `O=C(C[C@H](CCn1nnc2ccccc2c1=O)C(=O)O)c1noc2cc(OCC3CCOCC3)ccc12` (single isomer, unassigned; enantiomer 2) [Example 135] as the compound, how does the pIC50 (MMP-2) read?
A: Its pIC50 is 6.57.

Q: And the pIC50 (MMP-13)?
A: Its pIC50 is 5.82.

Q: What about the pIC50 (MMP-1) of the same compound?
A: Its pIC50 is < 4.40.

Q: Which results are given for `O=C(CC(CCn1nnc2ccccc2c1=O)C(=O)O)c1cc2ccc(OCCCC3CCCCC3)cc2o1` (racemic) [Example 71, (+/−)-4-[6-(3-Cyclohexylpropoxy)-1-benzofur-2-yl]-4-oxo-2-[2-(4-oxo-1,2,3-benzotriazin-3(4H)-yl)ethyl]butanoic acid]?
A: pIC50 (MMP-2): < 4.40; pIC50 (MMP-13): 4.52; pIC50 (MMP-1): < 4.40

Q: What does the source list for `O=C(CC(CCn1nnc2ccccc2c1=O)C(=O)O)c1onc2cc(OCc3ccccc3)ccc12` (racemic) [Example 156, (+/−)-4-[6-(Benzyloxy)-2,1-benzoxazol-3-yl]-4-oxo-2-[2-(4-oxo-1,2,3-benzotriazin-3(4H)-yl)ethyl]butanoic acid]?
A: pIC50 (MMP-2): 5.85; pIC50 (MMP-13): 5.66; pIC50 (MMP-1): < 4.40

Q: Which results are given for `O=C(CC(CCn1nnc2ccccc2c1=O)C(=O)O)c1cc2cc(OCCc3ccc(Cl)cc3)ccc2o1` (racemic) [Example 2, (+/−)-4-{5-[2-(4-Chlorophenyl)ethoxy]-1-benzofur-2-yl}-4-oxo-2-[2-(4-oxo-1,2,3-benzotriazin-3(4H)-yl)ethyl]butanoic acid]?
A: pIC50 (MMP-2): 5.34; pIC50 (MMP-13): 5.66; pIC50 (MMP-1): < 4.40

Q: `CCCCCOc1ccc2c(C(=O)CC(CCn3nnc4ccccc4c3=O)C(=O)O)noc2c1` (racemic) [Example 140, (+/−)-4-Oxo-2-[2-(4-oxo-1,2,3-benzotriazin-3(4H)-yl)ethyl]-4-[6-(pentyloxy)-1,2-benzoxazol-3-yl]butanoic acid] was tested. Which pIC50 (MMP-2) did it give?
A: Its pIC50 is 7.02.

Q: And the pIC50 (MMP-13)?
A: The pIC50 was 6.48.

Q: What about the pIC50 (MMP-1) of the same compound?
A: The pIC50 was < 4.40.

Q: What does the source list for `O=C(O)[C@H]1[C@H](Cn2nnc3ccc(C(F)(F)F)cc3c2=O)CC[C@@H]1C(=O)c1cc2cc(OCCc3ccccc3)ccc2o1` (racemic) [Example 157, (+/−)-(1RS,2SR,5RS)-2-{[4-Oxo-6-(trifluoromethyl)-1,2,3-benzotriazin-3(4H)-yl]methyl}-5-{[5-(2-phenylethoxy)-1-benzofur-2-yl]carbonyl}cyclopentanecarboxylic acid (racemate)]?
A: pIC50 (MMP-2): 6.06; pIC50 (MMP-13): 6.54; pIC50 (MMP-1): < 4.40

Q: What does the source list for `O=C(CC(CCn1nnc2ccccc2c1=O)C(=O)O)c1cc2cc(OCC3CCCCC3)ccc2o1` (racemic) [Example 8, (+/−)-4-[5-(Cyclohexylmethoxy)-1-benzofur-2-yl]-4-oxo-2-[2-(4-oxo-1,2,3-benzotriazin-3(4H)-yl)ethyl]butanoic acid]?
A: pIC50 (MMP-2): < 4.40; pIC50 (MMP-13): 4.66; pIC50 (MMP-1): < 4.40

Q: How did the pIC50 (MMP-2) turn out when `O=C(CC(CCn1nnc2ccccc2c1=O)C(=O)O)c1cc2ccc(OCC3CC3)cc2s1` (single isomer, unassigned; (+)) [Example 112, (+)-4-[6-(Cyclopropylmethoxy)-1-benzothiophen-2-yl]-4-oxo-2-[2-(4-oxo-1,2,3-benzotriazin-3(4H)-yl)ethyl]butanoic acid] was run?
A: Its pIC50 is 6.66.

Q: What about the pIC50 (MMP-13) of the same compound?
A: The pIC50 was 5.89.

Q: What about the pIC50 (MMP-1) of the same compound?
A: Its pIC50 is < 4.40.

Q: What does the source list for `O=C(CC(CCn1nnc2ccccc2c1=O)C(=O)O)c1cc2cc(OCCc3ccccc3Cl)ccc2o1` (racemic) [Example 1, (+/−)-4-{5-[2-(2-Chlorophenyl)ethoxy]-1-benzofur-2-yl}-4-oxo-2-[2-(4-oxo-1,2,3-benzotriazin-3(4H)-yl)ethyl]butanoic acid]?
A: pIC50 (MMP-2): < 4.40; pIC50 (MMP-13): < 4.40; pIC50 (MMP-1): < 4.40

Q: Which results are given for `CCCCCOc1ccc2cc(C(=O)CC(CCn3nnc4ccccc4c3=O)C(=O)O)sc2c1` (racemic) [Example 118, (+/−)-4-Oxo-2-[2-(4-oxo-1,2,3-benzotriazin-3(4H)-yl)ethyl]-4-[6-(pentyloxy)-1-benzothiophen-2-yl]butanoic acid]?
A: pIC50 (MMP-2): 6.46; pIC50 (MMP-13): 5.96; pIC50 (MMP-1): < 4.40

Q: Which results are given for `O=C(CC(CCn1nnc2ccccc2c1=O)C(=O)O)c1coc2cc(OCC3CCCC3)ccc12` (single isomer, unassigned; (+)) [Example 80, (+)-4-[6-(Cyclopentylmethoxy)-1-benzofur-3-yl]-4-oxo-2-[2-(4-oxo-1,2,3-benzotriazin-3(4H)-yl)ethyl]butanoic acid]?
A: pIC50 (MMP-2): 6.31; pIC50 (MMP-13): 5.44; pIC50 (MMP-1): < 4.40

Q: With `O=C(CC(CCn1nnc2ccccc2c1=O)C(=O)O)c1cc2cc(OCc3ccc(F)cc3)ccc2o1` (single isomer, unassigned; (+)) [Example 23, (+)-4-{5-[(4-Fluorobenzyl)oxy]-1-benzofur-2-yl}-4-oxo-2-[2-(4-oxo-1,2,3-benzotriazin-3(4H)-yl)ethyl]butanoic acid] as the compound, how does the pIC50 (MMP-2) read?
A: The pIC50 was 5.72.

Q: And the pIC50 (MMP-13)?
A: Its pIC50 is 5.28.

Q: What about the pIC50 (MMP-1) of the same compound?
A: Its pIC50 is < 4.40.

Q: `O=C(CC(CCn1nnc2ccccc2c1=O)C(=O)O)c1cc2cc(OCCC3CCOCC3)ccc2o1` (racemic) [Example 6, (+/−)-4-Oxo-2-[2-(4-oxo-1,2,3-benzotriazin-3(4H)-yl)ethyl]-4-{5-[2-(tetrahydro-2H-pyran-4-yl)ethoxy]-1-benzofur-2-yl}butanoic acid] was tested. Which pIC50 (MMP-2) did it give?
A: The pIC50 was 6.37.

Q: What about the pIC50 (MMP-13) of the same compound?
A: The pIC50 was 6.14.

Q: What about the pIC50 (MMP-1) of the same compound?
A: The pIC50 was < 4.40.

Q: How did the pIC50 (MMP-2) turn out when `O=C(CC(CCn1nnc2ccccc2c1=O)C(=O)O)c1coc2cc(OCCC3CCOCC3)ccc12` (racemic) [Example 74, (+/−)-4-Oxo-2-[2-(4-oxo-1,2,3-benzotriazin-3(4H)-yl)ethyl]-4-{6-[2-(tetrahydro-2H-pyran-4-yl)ethoxy]-1-benzofur-3-yl}butanoic acid] was run?
A: Its pIC50 is 7.70.

Q: What about the pIC50 (MMP-13) of the same compound?
A: Its pIC50 is 6.60.

Q: What about the pIC50 (MMP-1) of the same compound?
A: Its pIC50 is < 4.40.
